Results on 24 compounds are retold here after patent publication US11247990B1, “Bicyclic fused pyridine compounds as inhibitors of TAM kinases” (ARRAY BIOPHARMA INC., priority 2017, dated 2022).

Structures are written as SMILES. Some results are limits rather than exact numbers.

Experiment [1] concerns the target His-tagged recombinant human MER cytoplasmic domain (Homo sapiens (Human), UniProt Q12866). The experiment in a line: MER Enzyme Assay (LanthaScreen Eu Kinase Binding, TR-FRET). The settings on record: averaged IC50. Put shortly: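 Percent of control, derived from ratiometric TR-FRET emission, was fitted to a 4-parameter logistic curve and IC50 taken at 50 POC. Binding was read after 60 min at 22 °C using Eu-based LanthaScreen technology and recombinant His-tagged MER cytoplasmic domain.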

In experiment [2] the target is His-tagged recombinant human AXL cytoplasmic domain (Homo sapiens (Human), UniProt P30530). The experiment in a line: AXL Enzyme Assay (LanthaScreen Eu Kinase Binding, TR-FRET). Conditions: averaged IC50. Here is the method:
Compounds of Formula I were screened for their ability to inhibit AXL kinase using Invitrogen's LanthaScreen™ Eu Kinase Binding technology. […] After a 60-minute incubation at 22° C., the reaction was measured using a PerkinElmer EnVision multimode plate reader via TR-FRET dual wavelength detection, and the percent of control (POC) was calculated using a ratiometric emission factor. […] The POC values are fit to a 4 parameter logistic curve and the IC50 value is point where the curve crosses 50 POC.

Chain of His-tagged recombinant human MER cytoplasmic domain (Q12866 527-999): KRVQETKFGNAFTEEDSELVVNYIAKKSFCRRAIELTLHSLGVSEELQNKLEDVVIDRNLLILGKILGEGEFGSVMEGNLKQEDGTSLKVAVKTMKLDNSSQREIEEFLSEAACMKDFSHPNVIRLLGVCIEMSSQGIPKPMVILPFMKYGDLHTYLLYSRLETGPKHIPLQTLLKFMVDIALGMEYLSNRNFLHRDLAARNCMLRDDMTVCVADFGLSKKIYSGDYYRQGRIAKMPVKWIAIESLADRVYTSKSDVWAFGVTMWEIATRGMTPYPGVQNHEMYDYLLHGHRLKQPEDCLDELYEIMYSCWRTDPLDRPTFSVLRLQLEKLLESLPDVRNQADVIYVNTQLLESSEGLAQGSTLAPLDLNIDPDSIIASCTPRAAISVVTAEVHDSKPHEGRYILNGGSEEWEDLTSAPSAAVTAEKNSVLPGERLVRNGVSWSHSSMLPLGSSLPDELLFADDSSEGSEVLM
Chain of His-tagged recombinant human AXL cytoplasmic domain (P30530 473-894): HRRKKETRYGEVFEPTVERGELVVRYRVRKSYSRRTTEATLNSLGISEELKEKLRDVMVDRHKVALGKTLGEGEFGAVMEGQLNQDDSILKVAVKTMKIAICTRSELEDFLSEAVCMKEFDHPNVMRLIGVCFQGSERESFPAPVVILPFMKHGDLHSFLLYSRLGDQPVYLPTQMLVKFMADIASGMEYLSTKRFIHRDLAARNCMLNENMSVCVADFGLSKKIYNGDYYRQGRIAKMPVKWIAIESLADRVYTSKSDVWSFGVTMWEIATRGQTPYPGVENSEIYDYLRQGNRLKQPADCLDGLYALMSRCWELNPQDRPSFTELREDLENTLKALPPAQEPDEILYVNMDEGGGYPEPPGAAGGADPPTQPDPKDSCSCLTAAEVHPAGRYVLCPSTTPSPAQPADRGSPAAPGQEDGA

As for `CNc1cc2c(cn1)c(-c1cnn(C)c1)nn2[C@H]1CC[C@@H](Oc2cccnc2C)CC1` [Example 135, N-methyl-3-(1-methyl-1H-pyrazol-4-yl)-1-((1s,4s)-4-((2-methylpyridin-3-yl)oxy)cyclohexyl)-1H-pyrazolo[4,3-c]pyridin-6-amine], the IC50 in experiment [1] and in experiment [2] was less than 10 nM in each case.
As for `CCc1ncccc1O[C@H]1CC[C@@H](n2nc(-c3cnn(C)c3)c3cnc(NC)cc32)CC1` [Example 145, 1-((1s,4s)-4-((2-ethylpyridin-3-yl)oxy)cyclohexyl)-N-methyl-3-(1-methyl-1H-pyrazol-4-yl)-1H-pyrazolo[4,3-c]pyridin-6-amine], the 50% inhibitory concentration (IC50) in experiment [1] and in experiment [2] was less than 10 nM each time.
In the case of `CNc1cc2c(cn1)c(-c1cnn(C)c1)nn2[C@H]1CC[C@@H](Oc2cccnc2F)CC1` [Example 146, 1-((1s,4s)-4-((2-fluoropyridin-3-yl)oxy)cyclohexyl)-N-methyl-3-(1-methyl-1H-pyrazol-4-yl)-1H-pyrazolo[4,3-c]pyridin-6-amine], the 50% inhibitory concentration (IC50) in experiment [1] and in experiment [2] was less than 10 nM each time.
In the case of `CNc1cc2c(cn1)c(-c1cnn(C)c1)nn2[C@H]1CC[C@@H](Oc2nccnc2C)CC1` [Example 150, N-methyl-3-(1-methyl-1H-pyrazol-4-yl)-1-((1s,4s)-4-((3-methylpyrazin-2-yl)oxy)cyclohexyl)-1H-pyrazolo[4,3-c]pyridin-6-amine], the IC50 in experiment [1] and in experiment [2] was less than 10 nM each time.
With `CNc1cc2c(cn1)c(-c1cnn(C)c1)nn2[C@H]1CC[C@@H](Oc2cc(C(F)(F)F)ccn2)CC1` [Example 170, N-methyl-3-(1-methyl-1H-pyrazol-4-yl)-1-((1s,4s)-4-((4-(trifluoromethyl)pyridin-2-yl)oxy)cyclohexyl)-1H-pyrazolo[4,3-c]pyridin-6-amine], the IC50 in experiment [1] and in experiment [2] was less than 10 nM in each case.
Consider `CNc1cc2c(cn1)c(-c1cnn(C(C)(C)C#N)c1)nn2[C@H]1CC[C@@H](Oc2cccnc2C)CC1` [Example 202, 2-methyl-2-(4-(6-(methylamino)-1-((1s,4s)-4-((2-methylpyridin-3-yl)oxy)cyclohexyl)-1H-pyrazolo[4,3-c]pyridin-3-yl)-1H-pyrazol-1-yl)propanenitrile], for which the concentration for half-maximal inhibition (IC50) in experiment [1] and in experiment [2] was less than 10 nM in each case.
As to `CNc1cc2c(cn1)c(-c1cnn(C(C)(C)CO)c1)nn2[C@H]1CC[C@@H](Oc2nccnc2C)CC1` [Example 213, 2-methyl-2-(4-(6-(methylamino)-1-((1s,4s)-4-((3-methylpyrazin-2-yl)oxy)cyclohexyl)-1H-pyrazolo[4,3-c]pyridin-3-yl)-1H-pyrazol-1-yl)propan-1-ol], the half-maximal inhibitory concentration (IC50) in experiment [1] and in experiment [2] was less than 10 nM throughout.
For `CNc1cc2c(cn1)c(-c1ccc(CN3CCN(C)CC3)cc1)nn2[C@H]1CC[C@@H](Oc2cnn(C)c2)CC1` [Example 232, N-methyl-1-((1s,4s)-4-((1-methyl-1H-pyrazol-4-yl)oxy)cyclohexyl)-3-(4-((4-methylpiperazin-1-yl)methyl)phenyl)-1H-pyrazolo[4,3-c]pyridin-6-amine], the IC50 in experiment [1] and in experiment [2] was less than 10 nM in each case.
With `CCNc1cc2c(cn1)c(-c1cnc(=O)n(C)c1)nn2C1CCC(Oc2nccc(C(F)(F)F)c2F)CC1` (stereo not drawn) [Example 256, 5-(6-(ethylamino)-1-((1s,4s)-4-((3-fluoro-4-(trifluoromethyl)pyridin-2-yl)oxy)cyclohexyl)-1H-pyrazolo[4,3-c]pyridin-3-yl)-1-methylpyrimidin-2(1H)-one], the IC50 in experiment [1] and in experiment [2] was less than 10 nM each time.
For `CCNc1cc2c(cn1)c(-c1cn(C)c(=O)cn1)nn2[C@H]1CC[C@@H](Oc2nccc(C(F)(F)F)c2F)CC1` [Example 257, 5-(6-(ethylamino)-1-((1s,4s)-4-((3-fluoro-4-(trifluoromethyl)pyridin-2-yl)oxy)cyclohexyl)-1H-pyrazolo[4,3-c]pyridin-3-yl)-1-methylpyrazin-2(1H)-one], the 50% inhibitory concentration (IC50) in experiment [1] and in experiment [2] was less than 10 nM each time.
As to `CCNc1cc2c(cn1)c(-c1cnn(CC(=O)N(C)C)c1)nn2[C@H]1CC[C@@H](Oc2nccc(C(F)(F)F)c2F)CC1` [Example 259, 2-(4-(6-(ethylamino)-1-((1s,4s)-4-((3-fluoro-4-(trifluoromethyl)pyridin-2-yl)oxy)cyclohexyl)-1H-pyrazolo[4,3-c]pyridin-3-yl)-1H-pyrazol-1-yl)-N,N-dimethylacetamide], the IC50 in experiment [1] and in experiment [2] was less than 10 nM each time.
Regarding `CNc1cc2c(cn1)c(-c1ccc3c(c1)CNC3=O)nn2[C@H]1CC[C@@H](Oc2cnn(C)c2C(F)(F)F)CC1` [Example 266, 5-(1-((1s,4s)-4-((1-methyl-5-(trifluoromethyl)-1H-pyrazol-4-yl)oxy)cyclohexyl)-6-(methylamino)-1H-pyrazolo[4,3-c]pyridin-3-yl)isoindolin-1-one], the IC50 in experiment [1] and in experiment [2] was less than 10 nM throughout.
Consider `CCNc1cc2c(cn1)c(-c1cnc(C)nc1)nn2[C@H]1CC[C@@H](Oc2nccc(C(F)(F)F)c2F)CC1` [Example 268, N-ethyl-1-((1s,4s)-4-((3-fluoro-4-(trifluoromethyl)pyridin-2-yl)oxy)cyclohexyl)-3-(2-methylpyrimidin-5-yl)-1H-pyrazolo[4,3-c]pyridin-6-amine], for which the IC50 in experiment [1] and in experiment [2] was less than 10 nM throughout.
As for `CCNc1cc2c(cn1)c(C1CCOCC1)nn2[C@H]1CC[C@@H](Oc2nccc(C(F)(F)F)c2F)CC1` [Example 317, N-ethyl-1-((1s,4s)-4-((3-fluoro-4-(trifluoromethyl)pyridin-2-yl)oxy)cyclohexyl)-3-(tetrahydro-2H-pyran-4-yl)-1H-pyrazolo[4,3-c]pyridin-6-amine], the 50% inhibitory concentration (IC50) in experiment [1] and in experiment [2] was less than 10 nM throughout.
With `CCNc1cc2c(cn1)c(C1CCOC1)nn2[C@H]1CC[C@@H](Oc2nccc(C(F)(F)F)c2F)CC1` (stereo partly drawn) [Example 323, N-ethyl-1-((1s,4s)-4-((3-fluoro-4-(trifluoromethyl)pyridin-2-yl)oxy)cyclohexyl)-3-(tetrahydrofuran-3-yl)-1H-pyrazolo[4,3-c]pyridin-6-amine], the IC50 in experiment [1] and in experiment [2] was less than 10 nM throughout.
Regarding `CCNc1cc2c(cn1)c(N1CC[C@H](OC)C1)nn2[C@H]1CC[C@@H](Oc2nccc(C(F)(F)F)c2F)CC1` [Example 332, N-ethyl-1-((1s,4R)-4-((3-fluoro-4-(trifluoromethyl)pyridin-2-yl)oxy)cyclohexyl)-3-((S)-3-methoxypyrrolidin-1-yl)-1H-pyrazolo[4,3-c]pyridin-6-amine], the IC50 in experiment [1] and in experiment [2] was less than 10 nM each time.
Take `CNc1cc2c(cn1)c(-c1cnn(C)c1)nn2[C@H]1CC[C@@H](Oc2ccccc2F)CC1` [Example 353, 1-((1s,4s)-4-(2-fluorophenoxy)cyclohexyl)-N-methyl-3-(1-methyl-1H-pyrazol-4-yl)-1H-pyrazolo[4,3-c]pyridin-6-amine]: the half-maximal inhibitory concentration (IC50) in experiment [1] and in experiment [2] was less than 10 nM in each case.
On to `CNc1cc2c(cn1)c(-c1cnn(C)c1)nn2[C@H]1CC[C@@H](Oc2cccc(F)c2)CC1` [Example 354, 1-((1s,4s)-4-(3-fluorophenoxy)cyclohexyl)-N-methyl-3-(1-methyl-1H-pyrazol-4-yl)-1H-pyrazolo[4,3-c]pyridin-6-amine], for which the IC50 in experiment [1] and in experiment [2] was less than 10 nM each time.
As for `CNc1cc2c(cn1)c(-c1cnn(C)c1)nn2[C@H]1CC[C@@H](Oc2ccc(F)cc2)CC1` [Example 355, 1-((1s,4s)-4-(4-fluorophenoxy)cyclohexyl)-N-methyl-3-(1-methyl-1H-pyrazol-4-yl)-1H-pyrazolo[4,3-c]pyridin-6-amine], the IC50 in experiment [1] and in experiment [2] was less than 10 nM each time.
For the compound `CNc1cc2c(cn1)c(-c1cnn(C)c1)nn2[C@H]1CC[C@@H](Oc2cccc(F)c2F)CC1` [Example 357, 1-((1s,4s)-4-(2,3-difluorophenoxy)cyclohexyl)-N-methyl-3-(1-methyl-1H-pyrazol-4-yl)-1H-pyrazolo[4,3-c]pyridin-6-amine], the IC50 in experiment [1] and in experiment [2] was less than 10 nM each time.
Turning to `CNc1cc2c(cn1)c(-c1cnn(C)c1)nn2[C@H]1CC[C@@H](Oc2ccc(F)cc2F)CC1` [Example 358, 1-((1s,4s)-4-(2,4-difluorophenoxy)cyclohexyl)-N-methyl-3-(1-methyl-1H-pyrazol-4-yl)-1H-pyrazolo[4,3-c]pyridin-6-amine], the 50% inhibitory concentration (IC50) in experiment [1] and in experiment [2] was less than 10 nM in each case.
Regarding `CNc1cc2c(cn1)c(-c1cnn(C)c1)nn2[C@H]1CC[C@@H](Oc2ccccc2Cl)CC1` [Example 360, 1-((1s,4s)-4-(2-chlorophenoxy)cyclohexyl)-N-methyl-3-(1-methyl-1H-pyrazol-4-yl)-1H-pyrazolo[4,3-c]pyridin-6-amine], the 50% inhibitory concentration (IC50) in experiment [1] and in experiment [2] was less than 10 nM throughout.
With `CNc1cc2c(cn1)c(-c1cnn(C)c1)nn2[C@H]1CC[C@@H](Oc2cccc(Cl)c2)CC1` [Example 361, 1-((1s,4s)-4-(3-chlorophenoxy)cyclohexyl)-N-methyl-3-(1-methyl-1H-pyrazol-4-yl)-1H-pyrazolo[4,3-c]pyridin-6-amine], the IC50 in experiment [1] and in experiment [2] was less than 10 nM each time.
On to `CNc1cc2c(cn1)c(-c1cnn(C)c1)nn2[C@H]1CC[C@@H](Oc2cc(F)ccc2F)CC1` [Example 362, 1-((1s,4s)-4-(2,5-difluorophenoxy)cyclohexyl)-N-methyl-3-(1-methyl-1H-pyrazol-4-yl)-1H-pyrazolo[4,3-c]pyridin-6-amine], for which the IC50 in experiment [1] and in experiment [2] was less than 10 nM in each case.
